From patent US10570117B2, “Phenylimidazole compound” (Otsuka Pharmaceutical Factory, Inc., priority 2015, dated 2020)
In brackets after ≈: the same amount, converted by molar mass. Like-named read-outs stand apart in the source and are kept apart here.

How the values were obtained:
[1] = system: lipoprotein lipase (LPL) gene; experiment: LPL mRNA elevating action (RT-PCR quantification of LPL mRNA in C2Cl2 cells); assay type: cell-based, mouse; settings: Mus musculus, 24 h, compound 10 μM, ratio relative to the amount of LPL mRNA in cells with DMSO only, read-out: Rate of increase in LPL mRNA
Outline: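 Mouse striated-muscle C2Cl2 cells in DMEM with 10% FBS exposed to compounds at 10 μM for 24 h. LPL mRNA quantified by RT-PCR and real-time PCR (20 cycles), expressed as ratio to DMSO-only cells set at 1.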

[2] = Solubility in gastric juice or intestinal juice model fluid (precipitation method using DMSO); assay type: physicochemical; settings: room temperature
Outline: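 Compound in DMSO added to JP disintegration test fluid 1 (pH 1.2) or fluid 2 (pH 6.8) and shaken 24 h at room temperature. After filtration, dissolved concentration (μg/mL) determined by UV absorbance against compound calibration curves.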

[3] = pH 1.2, simulated gastric fluid, kinetic from dmso stock, 1st fluid for Disintegration Test of Japanese Pharmacopoeia (pH: 1.2), read-out: Solubility (μg/mL) 1st fluid
[4] = pH 6.8, kinetic from dmso stock, 2nd fluid for Disintegration Test of Japanese Pharmacopoeia (pH: 6.8), read-out: Solubility (μg/mL) 2nd fluid

Row | melting point | solubility at 24 h [2, 3] | solubility at 24 h [2, 4] | SMILES | fold induction at 10 µM [1]
1 | 227 to 232 °C | 72 µg/mL (≈ 176 µM) | 1.3 µg/mL (≈ 3.18 µM) | COc1cc(OCc2cc(C(C)C)no2)ccc1-c1cnc(-c2ccc(F)nc2)[nH]1 [Example 322] | 1.55
2 | 211 to 218 °C | 20.6 µg/mL (≈ 46.3 µM) | 0.7 µg/mL (≈ 1.57 µM) | COc1cc(OCc2ncc(Cl)cc2F)ccc1-c1cnc(-c2ccc(Cl)nc2)[nH]1 [Example 104] | 2.27
3 | 187 to 189 °C | 10.6 µg/mL (≈ 23.2 µM) | 1.2 µg/mL (≈ 2.63 µM) | COc1ccc(-c2nc(-c3ccc(OCc4ccc(C(F)(F)F)cn4)cc3OC)c[nH]2)cn1 [Example 79] | 1.42
4 | 147 to 150 °C | 8.6 µg/mL (≈ 18.7 µM) | 2.3 µg/mL (≈ 4.99 µM) | COc1cc(OCc2ccc(C(F)(F)F)cn2)ccc1-c1c[nH]c(-c2ccc(Cl)cn2)n1 [Example 42] | 2.27
5 | 175 to 177 °C | > 106 µg/mL | < 9.5 µg/mL | COc1c(OCc2ccc(C(F)(F)F)cn2)ccc(-c2[nH]c(C3CCC(F)(F)CC3)nc2Cl)c1OC [Example 205] | 5.41
6 | 151 to 154 °C | 84.6 µg/mL (≈ 191 µM) | 0.7 µg/mL (≈ 1.58 µM) | COc1cc(OCc2ncc(C(F)(F)F)cc2F)ccc1-c1[nH]c(C2CC2)nc1Cl [Example 377] | 1.88
7 | 145 to 149 °C | 7.8 µg/mL (≈ 15.5 µM) | < 0.3 µg/mL | CCSc1ccc(-c2ncc(-c3ccc(OCc4ncc(C(F)(F)F)cc4F)cc3OC)[nH]2)cn1 [Example 357] | 3.59
8 | 190 to 192 °C | 36 µg/mL (≈ 84 µM) | < 0.3 µg/mL | COc1cc(OCc2ncc(F)cc2F)ccc1-c1cnc(-c2ccc(Cl)nc2)[nH]1 [Example 103] | 2.36
9 | 162 to 164 °C | 95.5 µg/mL (≈ 190 µM) | 1.9 µg/mL (≈ 3.79 µM) | COc1cc(OCc2ccc(C(F)(F)F)cn2)ccc1-c1[nH]c(C2CCCC(F)(F)C2)nc1Cl (stereo not drawn) [Example 182] | 3.41
10 | 155 to 158 °C | < 0.4 µg/mL | < 0.4 µg/mL | Fc1ccc(-c2nc(Br)c(-c3ccc(OCc4ncc(C(F)(F)F)cc4F)cc3)[nH]2)cn1 [Example 345] | 2.39
11 | 185 to 187 °C | 16.2 µg/mL (≈ 35.2 µM) | 3.4 µg/mL (≈ 7.38 µM) | COc1cc(OCc2ncccc2C(F)(F)F)ccc1-c1c[nH]c(-c2ccc(Cl)nc2)n1 [Example 43] | 3.48
12 | 133 to 135 °C | 14.8 µg/mL (≈ 29.1 µM) | < 0.4 µg/mL | COc1cc(OCc2ccc(C(F)(F)F)cn2)ccc1-c1c(Cl)nc(-c2ccc(Cl)nc2)n1C [Example 309] | 2.37
13 | 213 to 214 °C | 60.5 µg/mL (≈ 120 µM) | 0.9 µg/mL (≈ 1.78 µM) | COc1cc(OCc2ccc(C(F)(F)F)cn2)ccc1-c1c[nH]c(-c2ccc(S(C)(=O)=O)nc2)n1 [Example 38] | 2.25
14 | 203 to 205 °C | 84.9 µg/mL (≈ 193 µM) | 0.4 µg/mL (≈ 0.908 µM) | COc1cc(OCc2ccc(C(F)(F)F)cn2)ccc1-c1c[nH]c(-c2ccc(C)nc2)n1 [Example 80] | 2.01
15 | 162 to 167 °C | 90.8 µg/mL (≈ 194 µM) | 13.4 µg/mL (≈ 28.7 µM) | COc1cc(-c2cnc(C3CCC(F)(F)CC3)[nH]2)ccc1OCc1ccc(C(F)(F)F)nc1 [Example 16] | 3.14
16 | 151 to 157 °C | 92.5 µg/mL (≈ 178 µM) | 2 µg/mL (≈ 3.86 µM) | COc1cc(-c2[nH]c(C3CC(F)(F)C3)nc2Br)ccc1OCc1ccc(C(F)(F)F)cn1 [Example 190] | 3.58
17 | 154 to 159 °C | 59 µg/mL (≈ 197 µM) | 5.2 µg/mL (≈ 17.4 µM) | COc1cc(O)ccc1-c1[nH]c(-c2ccc(F)nc2)nc1C [Example 333] | 1.22
18 | 208 to 210 °C (dec.) | 84.3 µg/mL (≈ 198 µM) | 1.8 µg/mL (≈ 4.23 µM) | COc1cc(OCc2cnc(C)cn2)ccc1-c1nc(-c2ccc(F)nc2)[nH]c1Cl [Example 216] | 2.62
19 | 180 to 183 °C | < 0.3 µg/mL | < 0.3 µg/mL | Fc1ccc(-c2nc(Cl)c(-c3ccc(OCc4ncc(C(F)(F)F)cc4F)cc3)[nH]2)cn1 [Example 355] | 3.59
20 | 172 to 174 °C | 54.1 µg/mL (≈ 115 µM) | 3.4 µg/mL (≈ 7.21 µM) | COc1cc(OCc2ncc(C(F)(F)F)cc2F)ccc1-c1[nH]c(C2CC(F)(F)C2)nc1C [Example 399] | 4.68
21 | 199 to 201 °C | 93.4 µg/mL (≈ 197 µM) | < 0.3 µg/mL | COc1cc(OCc2ccc(C(F)(F)F)nc2)ccc1-c1[nH]c(C2CC(F)(F)C2)nc1Cl [Example 181] | 4.53
22 | 201 to 202 °C | > 89 µg/mL | 1.8 µg/mL (≈ 4.05 µM) | COc1cc(OCc2ncccc2C(F)(F)F)ccc1-c1c[nH]c(-c2ccc(F)nc2)n1 [Example 121] | 3.38
23 | 191 to 196 °C | > 85 µg/mL | 1.9 µg/mL (≈ 4.45 µM) | Fc1cc(C(F)(F)F)cnc1COc1ccc(-c2cnc(C3CC(F)(F)C3)[nH]2)cc1 [Example 393] | 1.26
24 | 129 to 131 °C | 6.5 µg/mL (≈ 10.1 µM) | 0.9 µg/mL (≈ 1.4 µM) | CCOC(C)n1c(-c2ccc(F)nc2)nc(-c2ccc(OCc3ccc(C(F)(F)F)nc3)cc2OC)c1I (stereo not drawn) [Example 330] | 1.88
25 | 159 to 161 °C | 38.8 µg/mL (≈ 78.9 µM) | 1.1 µg/mL (≈ 2.24 µM) | COc1cc(-c2[nH]c(C3CC(F)(F)C3)nc2Cl)ccc1OCc1ncc(C(F)(F)F)cc1F [Example 354] | 4.44
26 | 161 to 164 °C | 64.3 µg/mL (≈ 131 µM) | 4.6 µg/mL (≈ 9.36 µM) | COc1cc(OCc2ncc(F)cc2F)ccc1-c1[nH]c(-c2ccc(F)nc2)nc1Br [Example 266] | 2.38
27 | 144 to 146 °C | > 111 µg/mL | < 9.9 µg/mL | COc1cc(OCc2ccc(C(F)(F)F)cn2)ccc1-c1nc(C2CCC(F)(F)CC2)n(CC2CC2)c1Cl [Example 292] | 2.81
28 | 191 to 193 °C | 86.4 µg/mL (≈ 182 µM) | 1.9 µg/mL (≈ 4.01 µM) | COc1cc(OCc2ccc(C(F)(F)F)cn2)ccc1-c1[nH]c(C2CC(F)(F)C2)nc1Cl [Example 188] | 2.95
29 | 116 to 119 °C | 3.8 µg/mL (≈ 7.63 µM) | < 0.4 µg/mL | COc1cc(-c2[nH]c(CCC(F)(F)F)nc2Cl)ccc1OCc1ncc(C(F)(F)F)cc1F [Example 395] | 2.61
30 | 165 to 166 °C | 20.7 µg/mL (≈ 46.6 µM) | 1.7 µg/mL (≈ 3.83 µM) | COc1cc(OCc2ccc(C(F)(F)F)nc2)ccc1-c1c[nH]c(-c2ccc(F)nc2)n1 [Example 1, 2-fluoro-5-[5-[2-methoxy-4-((6-(trifluoromethyl)pyridin-3-yl)methoxy)phenyl]-1H-imidazol-2-yl]pyridine] | 2.97
